From ChEMBL document CHEMBL4428102, “Discovery of an Orally Bioavailable Gonadotropin-Releasing Hormone Receptor Antagonist” (J Med Chem, 2016) come the findings set out here.

Some results are limits rather than exact numbers.

For this experiment, the target named is T1, Gonadotropin-releasing hormone receptor (Homo sapiens, UniProt P30968).
T1 sequence (P30968 whole entry): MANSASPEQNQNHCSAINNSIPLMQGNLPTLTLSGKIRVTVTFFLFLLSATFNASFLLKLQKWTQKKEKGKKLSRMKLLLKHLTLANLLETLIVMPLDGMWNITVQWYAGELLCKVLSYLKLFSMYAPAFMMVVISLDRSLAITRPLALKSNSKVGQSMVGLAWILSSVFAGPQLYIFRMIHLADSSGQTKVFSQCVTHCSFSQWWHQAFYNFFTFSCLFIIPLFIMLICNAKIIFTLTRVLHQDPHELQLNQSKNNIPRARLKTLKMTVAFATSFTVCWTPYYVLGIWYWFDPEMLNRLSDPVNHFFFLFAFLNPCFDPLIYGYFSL
Put plainly: Displacement of [125I]D-Trp6-LHRH from human GnRH receptor expressed in CHO-K1 cell membranes incubated for 1 hr by competitive binding assay.
As usually defined, the IC50 is the point on the concentration scale where inhibition reaches its midpoint. A low value points to greater potency. `Cc1c(N2CCN(Cc3ccccc3C(F)(F)F)CC2)c(=O)n(C[C@H](N)c2ccccc2)c(=O)n1Cc1c(F)cccc1F` had an IC50 of 65.6 nM.
To `Cc1c(N2CCN(Cc3ccc(C(F)(F)F)cc3)CC2)c(=O)n(C[C@H](N)c2ccccc2)c(=O)n1Cc1c(F)cccc1F` belongs 65.7 nM; to `Cc1c(N2CCN(c3ccccc3)CC2)c(=O)n(C[C@H](N)c2ccccc2)c(=O)n1Cc1c(F)cccc1F`, above 1000 nM; to `Cc1c(N2CCNC(CCO)C2)c(=O)n(C[C@H](N)c2ccccc2)c(=O)n1Cc1c(F)cccc1F` (stereo partly drawn), above 100 nM.
In the case of `Cc1c(N2CCN(CC(=O)c3ccccc3Cl)CC2)c(=O)n(C[C@H](N)c2ccccc2)c(=O)n1Cc1c(F)cccc1F` it was above 100 nM.
For the compound `Cc1c(N2CCN(c3ccccn3)CC2)c(=O)n(C[C@H](N)c2ccccc2)c(=O)n1Cc1c(F)cccc1F`, the IC50 was above 1000 nM.
To `Cc1c(N2CCN(Cc3cccc(F)c3F)CC2)c(=O)n(C[C@H](N)c2ccccc2)c(=O)n1Cc1c(F)cccc1F` belongs 10 nM.
In the case of `Cc1c(N2CCN(Cc3ccccn3)CC2)c(=O)n(C[C@H](N)c2ccccc2)c(=O)n1Cc1c(F)cccc1F` it was above 100 nM; in that of `Cc1c(N2CCN(Cc3ccc(Cl)cc3)CC2)c(=O)n(C[C@H](N)c2ccccc2)c(=O)n1Cc1c(F)cccc1F`, 14 nM; in that of `Cc1c(N2CCN(Cc3ccc(C#N)cc3)CC2)c(=O)n(C[C@H](N)c2ccccc2)c(=O)n1Cc1c(F)cccc1F`, 10 nM.
To `Cc1c(N2CCCC(C)C2)c(=O)n(C[C@H](N)c2ccccc2)c(=O)n1Cc1c(F)cccc1F` (stereo partly drawn) belongs 80.3 nM; to `Cc1c(N2CCN(Cc3ccccc3[N+](=O)[O-])CC2)c(=O)n(C[C@H](N)c2ccccc2)c(=O)n1Cc1c(F)cccc1F`, 13.3 nM.
As for `Cc1c(N2CCNCC2)c(=O)n(C[C@H](N)c2ccccc2)c(=O)n1Cc1c(F)cccc1F`, the IC50 is above 1000 nM.
To `Cc1ccc(CN2CCN(c3c(C)n(Cc4c(F)cccc4F)c(=O)n(C[C@H](N)c4ccccc4)c3=O)CC2)cc1` belongs 65.5 nM; to `Cc1c(N2CCC(c3ccccc3)C2)c(=O)n(C[C@H](N)c2ccccc2)c(=O)n1Cc1c(F)cccc1F` (stereo partly drawn), above 100 nM.
As to `Cc1c(N2CCN(CCc3ccccc3)CC2)c(=O)n(C[C@H](N)c2ccccc2)c(=O)n1Cc1c(F)cccc1F`, the IC50 is above 100 nM.
Compound `Cc1c(N2CCNC(c3ccccc3)C2)c(=O)n(C[C@H](N)c2ccccc2)c(=O)n1Cc1c(F)cccc1F` (stereo partly drawn) returned an IC50 above 100 nM.
As for `Cc1c(N2CCN(C(=O)OCc3ccccc3)CC2)c(=O)n(C[C@H](N)c2ccccc2)c(=O)n1Cc1c(F)cccc1F`, the half-maximal inhibitory concentration (IC50) is above 100 nM.
To `Cc1c(N2CCN(Cc3ccccc3)CC2)c(=O)n(C[C@H](N)c2ccccc2)c(=O)n1Cc1c(F)cccc1F` belongs 12 nM; to `Cc1c(N2CCN(Cc3ccc(O)cc3)CC2)c(=O)n(C[C@H](N)c2ccccc2)c(=O)n1Cc1c(F)cccc1F`, 35.3 nM.
To `Cc1c(N2CCN(CC3COc4ccccc4O3)CC2)c(=O)n(C[C@H](N)c2ccccc2)c(=O)n1Cc1c(F)cccc1F` (stereo partly drawn) belongs above 100 nM; to `Cc1c(N2CCN(Cc3ccncc3)CC2)c(=O)n(C[C@H](N)c2ccccc2)c(=O)n1Cc1c(F)cccc1F`, above 100 nM; to `Cc1c(N2CCN(CCCc3ccccc3)CC2)c(=O)n(C[C@H](N)c2ccccc2)c(=O)n1Cc1c(F)cccc1F`, above 100 nM.
In the case of `Cc1c(N2CCC(Cc3ccccc3)C2)c(=O)n(C[C@H](N)c2ccccc2)c(=O)n1Cc1c(F)cccc1F` (stereo partly drawn) it was above 100 nM.
In the case of `COc1ccc(CN2CCN(c3c(C)n(Cc4c(F)cccc4F)c(=O)n(C[C@H](N)c4ccccc4)c3=O)CC2)cc1`, the concentration for half-maximal inhibition (IC50) was above 100 nM.
As for `Cc1c(N2CCN(Cc3ccc(F)cc3)CC2)c(=O)n(C[C@H](N)c2ccccc2)c(=O)n1Cc1c(F)cccc1F`, the IC50 was 48.6 nM.
In the case of `Cc1c(N2CCC(C)CC2)c(=O)n(C[C@H](N)c2ccccc2)c(=O)n1Cc1c(F)cccc1F` it was 75.6 nM; in that of `Cc1c(N2CCc3ccccc3C2)c(=O)n(C[C@H](N)c2ccccc2)c(=O)n1Cc1c(F)cccc1F`, above 100 nM.
